Values quoted from earlier work in patent publication US20150223465A1, “COMPOSITION CONTAINING 3-CYCLOPROPYL-1-ENYL-PROPANOIC ACID SALTS AND A CARRIER” (Yissum Research Development Company of the Hebrew …, priority 2012, published 2015).

Assays:
[1] = tested on: cut mini carnation flowers; conditions: cited from earlier work; for inhibition of the action of ethylene: applied as aqueous solutions to cut mini carnation flowers; for activity as plant ethylene antagonist: in a vapor phase
[2] = tested on: cut flowers; conditions: cited from earlier work

Compound | inhibition of the action of ethylene [1] | activity as plant ethylene antagonist [1] | effect on fresh weight of cut flowers during vase life ([2]; about 1.5 mM NaHCO3 combined with CuSO4) | effect on hydraulic stem resistance or transpiration rate ([2]; in vase water of cut flowers)
CC1=CC1C(=O)O (stereo not drawn) [2-methylcycloprop-2-ene-1-carboxylic acid] | did not inhibit | active |  | 
O=C(O)C1C=C1 [cycloprop-2-ene-1-carboxylic acid] | did not inhibit | active |  | 
CC(C)N.O=C(O)CCC1=CC1 [propan-2-aminium 3-cycloprop-1-en-1-ylpropanoate] | some ethylene sensitivity but the test results were variable |  |  | 
O=C([O-])O.[Na+] [NaHCO3, sodium bicarbonate] |  |  | positively affected | no effect
O=C(O)CCC1=CC1 [3-cycloprop-1-en-1-ylpropanoic acid] | did not inhibit | active |  | 
